Laboratory results taken from patent publication US7585839B2, “Medical uses of intercellular communication facilitating compounds” (Zealand Pharma A/S, priority 2001, dated 2009).
[ ]: non-standard residue; d: D form. Hyp = O=C(O)[C@@H]1C[C@@H](O)CN1

How the values were obtained:
[1] = test system: WB-F344 rat liver epithelial cells; conditions: cited from earlier work
[2] = test system: calcium-induced arrythmias; assay: Calcium-induced arrhythmia model in mice (CaCl2-induced 2nd degree AV-block); type: in vivo; conditions: for CaCl2 mice In vivo, % / CaCl2 mice Score: calcium chloride induced arrythmia model; for In vivo activity: maximal effect, increase in time until 2nd degree AV-block relative to vehicle treated mice, i.v.
Experimental: The antiarrhythmic effects of compounds of this invention were tested in an in vivo model of calcium-induced arrythmias according to the model of Lynch et al.^[37]. […]. Commercial solutions of hypnorm and midazolam were diluted 1:1 in distilled water and one part diluted Hypnorm® is mixed with one part diluted midazolam.
The anaesthesia was induced by s.c. administration in a dose of 0.05-0.075 μl/10 gram mouse. An i.v. cannula was inserted into the tail vein. The lead II ECG signal was recorded continuously by positioning of a stainless steel ECG electrodes on the right forelimb and on the left hind limb. The ground electrode was placed on the right hind limb. The signal was amplified (×5.000-10.000) and filtered (0.1-150 Hz) via a Hugo Sachs Electronic model 689 ECG module. The analogue signal was digitised via a 12 bit data acquisition board (Data Translation model DT321) and sampled at 1000 Hz using the Notocord HEM 3.1 software for Windows NT. After a 10-min equilibration period, the test sample of drug was injected into the tail vein. Mice pre-treated with vehicle were tested as a measure of the control level in untreated animals. The injection volume was 100 μl in all experiments. Infusion of CaCl2 (30 mg/ml, 0.1 ml/min≈100 mg/kg/min (calciumchlorid-2-hydrat, Riedel-de Haën, Germany)) was started 3 min after i.v. administration of drug or vehicle.
The time lag to onset of 2nd degree AV-block was determined as the time from the start of CaCl2 infusion until the first arrhythmic event occured. An event of 2nd degree AV-block was defined as intermittent failure of the AV conduction characterised by a P-wave without the concomitant QRS complex.
Responses were expressed relative to the time until 2nd degree AV-block occurred in vehicle treated mice.

human osteoblastic cells = assay: DDT-induced uncoupling in human osteoblast cells, Lucifer Yellow microinjection; type: cell-based; conditions: 13 μM, 60 minutes; control 14.5 cells
Experimental: Human osteoblast cells: Cells were isolated from human bone marrow obtained by puncture of the posterior iliac spine of healthy volunteers (aged 20-36): 10-15 ml marrow material was collected in 15 ml PBS+Ca, Mg (Life Technologies, Cat.No. 14040) with 100 U/ml Heparin (Sigma, Cat.No. H-3149). The mononuclear fraction of the marrow was isolated on a Lymphoprep gradient (Nycomed Pharma, Cat.No. 1001967), by centrifugation at 2200 rpm for 30 min. After harvesting, the mononuclear fraction was washed once with culture medium and centrifuged at 1800 rpm for 10 min. Subsequently cells were counted and plated in culture medium at 8×10^6 cells/100 mm dish. hOB medium (all reagents obtained from Life Technologies): MEM w/o Phenol Red w/Glutamax (Cat.No. 041-93013) supplemented with 10% heat inactivated fetal calf serum (Cat.No. 10106) and 0.1% Penicillin/Streptomycin (Cat.No. 15140). Medium was changed the following day and the cells were cultured at 37° C. in 5%CO2 with medium change every 7 days. After 3-4 weeks of culture the cells had reached 70% confluence. The medium was then supplemented with 100 nM Dexamethasone (Sigma, Cat.No. D-4902) for 7 days. Cells were then plated for video imaging experiments: a 25 mm #1 glass coverslip was placed in a 35 mm dish (or each well of a 6-well multidish), cells were plated at 2.5×10^5 cells/coverslip and cultured for 2-3 days before use. […]

[3] = In vitro plasma and serum stability, rabbit; type: in vitro ADME; conditions: 37° C., 0.1 mg/ml
Experimental: (§1) The stability of peptides is analysed in serum and plasma. The peptides are incubated at 37° C. in plasma or serum and samples taken at approx. 9 regular intervals between t=0 and t=156 min are analysed by HPLC.
This is done by subsequent injections of the drug, plasma, and a co-injection with the drug and the plasma, followed by optimisation of the LC method parameters until a satisfactory separation is obtained. Three parallel experiments are performed for each plasma type. 100 ml of peptide is mixed with 900 ml plasma at t=0 and incubated at 37° C. (drug-plasma mixture conc. 0.1 mg/ml). Samples of 100 ml of the drug-plasma mixture are removed at appropriate intervals and the degradation stopped by precipitation of the sample with 10 ml MeCN:TFA 50:50 v/v. A control plasma sample without the drug treated in the same manner is also taken. The plasma samples are centrifuged for 15 min. at 12,000 rpm (Eppendorf centrifuge) at ambient temperature. The resulting supernatant solution is transferred to 300 ml HP autosamler vials and analyzed by HPLC. The samples are analyzed in the following order: blank, the peptide at 0.1 mg/mL, the plasma without the peptide, the three parallel samples for t=0, the three parallel samples for t=5 min. the three parallel samples for t=10 min. etc. […]

[4] = In vitro plasma and serum stability, human; type: in vitro ADME; conditions: for T½, PLASMA, HEPARIN HUMAN: 37° C., 0.1 mg/ml
Experimental: as §1
This is done by subsequent injections of the drug, plasma, and a co-injection with the drug and the plasma, followed by optimisation of the LC method parameters until a satisfactory separation is obtained. Three parallel experiments are performed for each plasma type. 100 ml of peptide is mixed with 900 ml plasma at t=0 and incubated at 37° C. (drug-plasma mixture conc. 0.1 mg/ml). Samples of 100 ml of the drug-plasma mixture are removed at appropriate intervals and the degradation stopped by precipitation of the sample with 10 ml MeCN:TFA 50:50 v/v. A control plasma sample without the drug treated in the same manner is also taken. The plasma samples are centrifuged for 15 min. at 12,000 rpm (Eppendorf centrifuge) at ambient temperature. The resulting supernatant solution is transferred to 300 ml HP autosamler vials and analyzed by HPLC. The samples are analyzed in the following order: blank, the peptide at 0.1 mg/mL, the plasma without the peptide, the three parallel samples for t=0, the three parallel samples for t=5 min. the three parallel samples for t=10 min. etc. And finally the three parallel samples for t=0 are repeated to make sure that there have been no degradation or other failure during the analyses. The sample concentrations (peak height in mAU) are plotted vs. time and fitted to a function describing a mono exponential decay (Excel).

[5] = test system: connexin 43 in keratinocytes; conditions: keratinocytes of middel aged and elderly people; cited from earlier work
[6] = test system: phosphoinositol turnover in neonatal rat cardiomyocytes; assay: Phosphoinositol turnover in primary cardiomyocyte cultures; type: cell-based
Experimental: Neonatal Wistar rats (1-2 days old) are used. Hank's calcium- and magnesium-free balanced salt solution, buffered with 10 mM HEPES is used for washing during cell separation procedures. The hearts are excised, the ventricles isolated and the tissue cut into small pieces. The myocardial cells are isolated by stepwise enzymatic degradation with collagenase 0.05%, as described by ^[35]. After repeated rounds of centrifugation and washing, the precipitated cells are resuspended in culture medium M199 with Earle's salt, 10% NCS, penicillin (75 U/mL), and streptomycin (75 U/mL) and pre-plated in a Petri dish for 90 minutes. The non-adherent cells are collected in the culture medium and plated in multidishes at 2.5*10^5 cells/well. The cultures are kept in a water-saturated CO2-incubator at 37° C. The cardiomyocyte cultures are used for analyses after 6-7 days.
Cardiomyocyte cultures are incubated for 48 hours in culture medium containing 4 μCi/mL myo-[2-^3H]inositol to label the inositol phospholipids. On the day of analysis the medium is replaced by a buffer solution containing lithium and incubated at 37° C., as described by Meier et al.^[36]. After at least five minutes this buffer is replaced by the same volume of buffer containing test compound and incubated for exactly 20 minutes. The reaction is stopped by rapid replacement of the buffer by ice cold 4% v/v perchloric acid (PCA) and incubation for at least 20 minutes at 0° C. The PCA-extract is neutralised and the [^3H]inositol phosphates are separated by anion-exchange chromatography using Amprep™ columns containing 100 mg SAX Quaternary amine. The [^3H]inositol mono-phosphates are eluted and radioactivity in the fraction measured by liquid scintillation counting.
Before adding test substances to the cultures, the cells are depleted of glucose and oxygen by incubating them in a N2-atmosphere in glucose-free lithium-buffer for 10 minutes at 37° C. Control cells are incubated likewise only at normal atmospheric conditions and in a buffer containing glucose.

[7] = test system: regional ischemia in the rabbit; conditions: cited from earlier work
[8] = test system: membranes from rabbit heart; conditions: cited from earlier work
[9] = test system: cerulein-induced acute pancreatitis; conditions: 100 mg/kg orally; pancreatitis group 19%; cited from earlier work
GJIC = conditions: 10(−10) to 10(−6) M; cited from earlier work

Oc1ccc(C=Cc2cc(O)cc(O)c2)cc1 [Resveratrol, resveratrol]
prevention of down-regulation of GJIC by DDT, factor ([1]; 17-50 microM): 1.8
prevention of down-regulation of GJIC by TPA, factor ([1]; 17-50 microM): 2.7
increase of GJIC, factor compared with solvent vehicle controls ([1]; 17 to 50 microM, 6 h): 1.3
time until calcium-induced block relative to animals treated with vehicle ([2]; iv, 0.1 umol/kg): 136±9%

Clc1ccc(C(c2ccc(Cl)cc2)C(Cl)(Cl)Cl)cc1 [DDT, 1,1-bis(p-chlorophenyl)-2,2,2-trichlorethane, reference compound]
cellular coupling, median number of cells with dye (human osteoblastic cells): 7 cells

cyclo(GAG[Hyp]PYN) [Compound 36]
T½, PLASMA, HEPARIN RABBIT [3]: 30 hrs ± 8%
Human plasma half life [4]: 13 h
T½, PLASMA, HEPARIN HUMAN [4]: 9 hrs ± 1%
CaCl2 mice In vivo, % [2]: 57 +/− 8%
CaCl2 mice Score [2]: 2
In vivo activity [2]: +++ (+++ refers to >60% increase in time until arrhythmia)

COc1cc2c(cc1O)C[C@H]1c3c(cc(O)c(OC)c3-2)CCN1C [boldine]
optimal concentration for increase of the content of connexin 43 [5]: 50 nM

cyclo(GAG[Hyp]PYQ) [Compound 35]
T½, PLASMA, HEPARIN RABBIT [3]: 14 hrs ± 2%
Human plasma half life [4]: 15 h
T½, PLASMA, HEPARIN HUMAN [4]: 15 hrs ± 1%
CaCl2 mice In vivo, % [2]: 48 +/− 14%
CaCl2 mice Score [2]: 2
In vivo activity [2]: ++ (++ refers to 30-50% increase in time until arrhythmia)

H-GAG[Hyp]PY-NH2 [AAP10]
EC50 relative to the EC50 value for Compound 2 ([6]; metabolic stress induced by anoxia and glucose deprivation): 10 fold
EC50 relative to the EC50 value for Compound 2 ([6]; normoxia): 200 fold
concentration of maximal effect on dispersion of the epicardial activation-recovery interval [7]: 10^−8 mol/l
value given for AAP10 by Dhein et al. [8]: 0.2 nM
CaCl2 mice In vivo, % [2]: 76 +/− 21%
CaCl2 mice Score [2]: 3
In vivo activity [2]: +++ (+++ refers to >60% increase in time until arrhythmia)

H-PYNGAG[Hyp]-NH2 [Compound 27]
stability in plasma and serum compared with AAP10 [4]: considerably more stable

Nc1nc(N)nc(-c2cc(Cl)ccc2Cl)n1 [irsogladine, 6-(2,5-dichlorophenyl)-2,4-diamino-1,3,5-triazine]
number of Cx32 grains, % of the normal control value [9]: 70%
effect on GJIC, compound alone (GJIC): did not affect GJIC

NC[C@H](O)c1ccc(O)c(O)c1 [Noradrenaline]
Emax of phosphoinositol turnover ([6]; atmosphere of N2 and depleted of glucose): 2248±702 cpm
Emax of phosphoinositol turnover ([6]; normal atmospheric and nutritional conditions): 3852±266 cpm
